Like-named read-outs stand apart in the source and are kept apart here. Marks after values point to notes of the source that are not given here. Peptide text beside a SMILES is read from it. * marks the point of attachment. Cbz = O=C(OCc1ccccc1)*; PhAc = O=C(Cc1ccccc1)*

For experiment [1], the system named is West Nile virus NS2B/NS3 protease. Particulars: cited from earlier work.
Experiment [2] deals with WNV NS2B/NS3 protease (West Nile virus, UniProt P06935). Description: In vitro NS2B/NS3 protease inhibition (fluorescent substrate Pyr-RTKR-AMC, progress curve method). The experiment is classed as biochemical. The following applies: for percent of inhibition: inhibitor 100 µM, after 30 min incubation at 37 °C; for k2/Ki: Table 2, peptide phosphonates; for improvement in inhibitory potency after introduction of P2 Arg and P3 Lys: peptidyl derivative vs. simple Cbz-protected parent phosphonate. As to the method: For the initial screening, Cbz-protected aminophosphonates were assayed in 96 well microplates (Nunc™ F96 MicroWell™ White Polystyrene Plate) in the following protease buffer: 50 mM Tris, 1 mM Chaps, 20% glycerol, pH 8.5. WNV NS2B/NS3 protease (AnaSpec, Liege, Belgium; 20 nM) was pre-incubated with tested inhibitor (100 µM) in the protease buffer at 37 °C for 10 min prior an addition of the fluorescent substrate Pyr-RTKR-AMC (AnaSpec, Liege, Belgium; 20 µM). The progress of the reaction was monitored continuously (λex = 354 nm, λem = 442 nm) at 37 °C on a Spectra Max Gemini XPS spectrofluorometer (Molecular Devices, Sunnyvale, CA) for 30 min. […] In 96 well microplates narrowed concentration of inhibitors and constant substrate concentration (Pyr-RTKR-AMC, C = 20 µM, KM = 59 µM) were prepared. The enzyme solution was added and enzymatic reaction was monitored (Figure S1). Using a model for irreversible inhibition, in which the first order inactivation rate constant kobs is hyperbolic dependent from the inhibitor concentration Ki and k2/Ki values were calculated (equations (1–4) in supplementary material)[29]. Control progress curves in the absence of inhibitor were linear.
The inhibitory activity of the compounds was determined by the progress curve method. First the data from nonlinear progress curves with time dependent inhibitors were fit to eq.1 to obtain the first-order rate constant (kobs):
The second-order rate constants (k2/KI) and (KI)app values were calculated using hyperbolic regression according to equation 3: […]
KI values were calculated according to equation 3: […]

Experiment [3] has as its target T1, Human Airway Trypsin-like Protease (HAT) (Homo sapiens, UniProt O60235).
T1 construct: purchased R&D Systems, Minneapolis, MN
T1 sequence (O60235 1-418): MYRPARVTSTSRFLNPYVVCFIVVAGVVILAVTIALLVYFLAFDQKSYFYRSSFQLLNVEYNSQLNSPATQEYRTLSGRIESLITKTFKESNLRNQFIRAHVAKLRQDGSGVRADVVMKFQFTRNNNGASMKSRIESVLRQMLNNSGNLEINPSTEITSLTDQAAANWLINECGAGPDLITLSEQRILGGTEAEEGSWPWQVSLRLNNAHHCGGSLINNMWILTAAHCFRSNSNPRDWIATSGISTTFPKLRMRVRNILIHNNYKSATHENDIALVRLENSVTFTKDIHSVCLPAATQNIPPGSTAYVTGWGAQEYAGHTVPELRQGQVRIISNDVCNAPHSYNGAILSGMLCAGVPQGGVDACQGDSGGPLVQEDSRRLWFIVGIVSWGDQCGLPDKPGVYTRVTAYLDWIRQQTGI
Description: Control proteases inhibition assay, HAT protease. Format: biochemical. Particulars: inhibitor concentration 25 μM; after 30 min incubation at 37 °C. As to the method: (§1) Bovine β-trypsin (AppliChem, Łódź, Poland), human cathepsin G (Biocentrum, Kraków, Poland) and Human Airway Trypsin-like Protease (HAT) (R&D Systems, Minneapolis, MN) were used as control proteases to screen the activity of NS2B/NS3 protease inhibitors (36–39) obtained in this study. Inhibitors were assayed in 96-well microplates in the 0.1 M HEPES, 0.5 M NaCl, 0.03%, pH 7.5 Triton X-100 (for bovine β-trypsin and cathepsin G). Bovine β-trypsin (15 nM), human cathepsin G (150 nM) or HAT protease (0.001 µg) was pre-incubated with tested inhibitor (25 µM) in the protease buffer at 37 °C for 10 min prior to the addition of the fluorescent substrate: Cbz-Arg-AFC (synthesised in-house according to the procedure described by Bissell[30]; 50 µM; λex = 400 nm, λem = 505 nm, for bovine β-trypsin); MeO-Suc-Ala-Ala-Pro-Val-AMC (Bachem, Bubendorf, Switzerland; 40 µM, λex = 340 nm, λem = 440 nm, for human cathepsin G) or Phe-Ser Arg-AMC (Bachem, Bubendorf, Switzerland; 40 µM, λex = 340 nm, λem = 440 nm, for HAT protease). The progress of the reactions was monitored continuously at 37 °C on a Spectra Max Gemini XPS spectrofluorometer for 20 min. Control curves in the absence of inhibitor were linear. The rate of the tested protease inhibition was calculated from the linear range of the plot.

Experiment [4] concerns the target T2, Bovine β-trypsin (Bos taurus, UniProt P00760).
T2 construct: purchased AppliChem, Łódź, Poland
T2 sequence (P00760 24-246): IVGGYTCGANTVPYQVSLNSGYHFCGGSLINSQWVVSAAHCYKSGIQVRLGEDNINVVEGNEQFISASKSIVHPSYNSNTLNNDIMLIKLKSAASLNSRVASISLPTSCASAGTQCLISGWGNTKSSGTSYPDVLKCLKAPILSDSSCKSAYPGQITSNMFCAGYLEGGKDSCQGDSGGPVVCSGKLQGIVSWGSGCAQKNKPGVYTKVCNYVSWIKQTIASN
Briefly: Control proteases inhibition assay, trypsin. The experiment is classed as biochemical. Particulars: inhibitor concentration 25 μM; after 30 min incubation at 37 °C. On the procedure:
as §1

The target of experiment [5] is T3, human cathepsin G (Homo sapiens, UniProt P08311).
T3 construct: purchased Biocentrum, Kraków, Poland
T3 sequence (P08311 21-255): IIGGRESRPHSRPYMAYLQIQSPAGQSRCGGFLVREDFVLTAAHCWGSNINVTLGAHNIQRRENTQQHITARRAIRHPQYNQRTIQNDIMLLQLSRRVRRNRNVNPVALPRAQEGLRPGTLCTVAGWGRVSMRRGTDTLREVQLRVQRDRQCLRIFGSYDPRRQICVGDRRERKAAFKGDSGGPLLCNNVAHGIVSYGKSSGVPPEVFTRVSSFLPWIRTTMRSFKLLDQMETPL
Description: Control proteases inhibition assay, cathepsin G. Particulars: inhibitor concentration 25 μM; after 30 min incubation at 37 °C. Format: biochemical. On the procedure: as §1

[6] abbreviates: tripeptide aldehydes, ref 11 (Stoermer et al.).

Sequence of WNV NS2B/NS3 protease (P06935 1502-1680): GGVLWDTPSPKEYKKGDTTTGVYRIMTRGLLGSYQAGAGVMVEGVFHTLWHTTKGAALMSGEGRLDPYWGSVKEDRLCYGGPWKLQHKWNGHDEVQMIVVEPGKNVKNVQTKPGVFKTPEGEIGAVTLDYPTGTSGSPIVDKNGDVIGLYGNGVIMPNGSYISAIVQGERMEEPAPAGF
Sequence of WNV NS2B/NS3 protease (P06935 1419-1466): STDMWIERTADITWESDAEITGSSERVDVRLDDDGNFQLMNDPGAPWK

With `N=C(N)NCCC[C@@H](C=O)NC(=O)[C@H](CCCCN)NC(=O)[C@H](CCCCN)NC(=O)Cc1ccc(-c2ccccc2)cc1` [Compound 1], the Ki in experiment [1] (setting [6]) is 0.006 µM. With `N=C(N)NCCC[C@@H](C=O)NC(=O)[C@H](CCCCN)NC(=O)[C@H](CCCCN)NC(=O)Cc1ccccc1` [Compound 2] (PhAc-Lys-Lys-Arg-aldehyde), the Ki in experiment [1] (setting [6]) is 0.009 µM. For `N=C(N)NC1CCC(CNC(=O)[C@H](CCCCN)NC(=O)[C@H](CCCCN)NC(=O)Cc2ccc(Cl)c(Cl)c2)CC1` (stereo partly shown) [Compound 3], the Ki in experiment [1] (ref 13 (Hammamy et al.)) was 0.13 µM.

As for `NCCCC[C@H](NC(=O)c1ccc(/C=C2\SC(=O)N(CC3CCCCC3)C2=O)cc1)C(=O)N[C@@H](CCCCN)C(=O)N[C@H](C(N)=O)c1ccccc1` [Compound 4], the Ki in experiment [1] (ref 14 (Bastos et al.)) is 0.75 µM. For `N=C(N)SCCCC(NC(=O)OCc1ccccc1)P(=O)(Oc1ccccc1)Oc1ccccc1` (stereo not shown) [Compound 8], in experiment [2] (substrate Pyr-RTKR-AMC 20 µM), the percent of inhibition amounted to 22%. In experiment [2] (substrate Pyr-RTKR-AMC 20 µM), `NC(=O)CCC(NC(=O)OCc1ccccc1)P(=O)(Oc1ccccc1)Oc1ccccc1` (stereo not shown) [Compound 11, Cbz-Gln^P(OPh)2] displayed a percent of inhibition of 15%. In experiment [2] (substrate Pyr-RTKR-AMC 20 µM), `N#Cc1ccc2cc(C(NC(=O)OCc3ccccc3)P(=O)(Oc3ccccc3)Oc3ccccc3)ccc2c1` (stereo not shown) [Compound 22] returned a percent of inhibition of 2%. Regarding `N=C(N)c1ccc2cc(C(NC(=O)OCc3ccccc3)P(=O)(Oc3ccccc3)Oc3ccccc3)ccc2c1` (stereo not shown) [Compound 23], the inhibition at 100 µM in experiment [2] (read-out: percent of inhibition) is 12%. For the compound `O=C(NC(c1ccc(-n2cccn2)cc1)P(=O)(Oc1ccccc1)Oc1ccccc1)OCc1ccccc1` (stereo not shown) [Compound 24, Benzyl ((4-(1H-pyrazol-1-yl)phenyl)(diphenoxyphosphoryl)methyl)carbamate], the percent of inhibition in experiment [2] (substrate Pyr-RTKR-AMC 20 µM) is 5%. In the case of `O=C(NC(c1ccc(-n2cnc3ccccc32)cc1)P(=O)(Oc1ccccc1)Oc1ccccc1)OCc1ccccc1` (stereo not shown) [Compound 25], in experiment [2] (substrate Pyr-RTKR-AMC 20 µM), the percent of inhibition is on record as 4%. On the same count and under the same terms, the result for `CN1CCN(c2ccc(C(NC(=O)OCc3ccccc3)P(=O)(Oc3ccccc3)Oc3ccccc3)cc2)CC1` (stereo not shown) [Compound 26] reads 3%. Turning to `O=C(NC(c1ccc(N2CCOCC2)cc1)P(=O)(Oc1ccccc1)Oc1ccccc1)OCc1ccccc1` (stereo not shown) [Compound 27], the percent of inhibition in experiment [2] (substrate Pyr-RTKR-AMC 20 µM) is on record as 1%. Consider `N=C(N)NCCC[C@H](NC(=O)[C@H](CCCCN)NC(=O)OCc1ccccc1)C(=O)NC(CCCCN)P(=O)(Oc1ccccc1)Oc1ccccc1` (stereo partly drawn) [Compound 36, Cbz-Lys-Arg-Lys^P(OPh)2], for which the “percent of inhibition, HAT” value in experiment [3] was 2%. In addition, in experiment [4], the “percent of inhibition, Trypsin” value is recorded as 8%^a. Further, in experiment [5], the “percent of inhibition, CatG” value stood at 2%. Moreover, in experiment [2], affinity was put at a Ki of 8 ± 0.9 µM; the “improvement in inhibitory potency after introduction of P2 Arg and P3 Lys” value turned out to be 69 fold. The k2/Ki in experiment [2] (substrate Pyr-RTKR-AMC 20 µM) is recorded as 5 520 M^−1s^−1. On to `N=C(N)NCCCC(NC(=O)[C@H](CCCNC(=N)N)NC(=O)[C@H](CCCCN)NC(=O)OCc1ccccc1)P(=O)(Oc1ccccc1)Oc1ccccc1` (stereo partly drawn) [Compound 37, Cbz-Lys-Arg-Arg^P(OPh)2], for which, in experiment [3], the “percent of inhibition, HAT” value amounted to 2%. Also, in experiment [4], the “percent of inhibition, Trypsin” value worked out at 7%. Also, in experiment [5], the “percent of inhibition, CatG” value stood at 3%. Besides, in experiment [2], the affinity corresponds to a Ki of 3 ± 0.3 µM; the “improvement in inhibitory potency after introduction of P2 Arg and P3 Lys” value came to 69 fold. For the same compound, the k2/Ki in experiment [2] (substrate Pyr-RTKR-AMC 20 µM) was 10 725 M^−1s^−1. Regarding `N=C(N)NCCCC(C=O)NC(=O)C(CCCNC(=N)N)NC(=O)C(CCCCN)NC(=O)OCc1ccccc1` (stereo not drawn) [Compound 40, Cbz-Lys-Arg-Arg-H, reference compound] (Cbz-Lys-Arg-Arg-aldehyde; configuration not given here), the Ki in experiment [2] (Table 2, peptide phosphonates and reference aldehyde, substrate Pyr-RTKR-AMC 20 µM, read-out: Ki) stood at 0.12 ± 0.02 µM.

What is called Ki is a measure of affinity in units of concentration, obtained from inhibition or displacement. One may read the inhibition as the change of the read-out against control, counted positive when it falls.

The record behind these values is PMC6211275, “Phosphonate inhibitors of West Nile virus NS2B/NS3 protease” (Journal of Enzyme Inhibition and Medicinal Chemistry, 2018).
